Patent publication US20160229835A1, “NOVEL PYRIDYLOXYACETYL TETRAHYDROISOQUINOLINE COMPOUNDS USEFUL AS NAMPT INHIBITORS” (ELI LILLY AND COMPANY, priority 2013, published 2016)
Like-named read-outs stand apart in the source and are kept apart here.

Experiments:
Type in all cases: cell-based
NCI-H295 = assay: Cell Proliferation Assay ±NA, NCI-H295; conditions: NCI-H295, adrenal gland, treatment time 144 hr
Protocol: (§1) The purpose of this assay is to measure the ability of a compound to inhibit proliferation of endometrium, kidney, adrenal gland, and autonomic ganglia cancer cell lines dependent on the NAMPT-mediated NAD^+ formation in the presence or absence of NA (10 μM) in vitro. One day before the planned initiation of compound treatment portion of the assay, one vial of assay ready frozen cells is thawed, and the cells are grown overnight in the media as shown in Table 3 under 5% CO2 at 37° C. Then, the cell layer is briefly rinsed with 0.25% (w/v) Trypsin-0.038% (w/v) EDTA solution followed with the addition of 3.0 ml of Trypsin-EDTA solution. Once the cell layer is dispersed, 8.0 ml of complete growth medium (Table 3) is added and cells are aspirated by gently pipetting. The cell suspension is transferred to a centrifuge tube and centrifuged at 800-1000 rpm for 3-5 minutes. The supernatant is discarded using a vacuum pump. The cell pellet is suspended in a complete medium by gently pipetting. The cell numbers are counted and adjusted to the appropriate density (Table 3). […] The bottom of each plate is pasted with a white back seal and luminescence is recorded using a Flexstation 3 with the following settings: Luminescence and integration time of 500 ms.

TGW = assay: Cell Proliferation Assay ±NA, TGW; conditions: autonomic ganglia, treatment time 48 hr
Protocol: as §1

HEC-1-A = assay: Cell Proliferation Assay ±NA, HEC-1-A; conditions: Homo sapiens, endometrium, treatment time 72 hr, tested in a growth medium containing nicotinic acid
Protocol: as §1

SNG-M = assay: Cell Proliferation Assay ±NA, SNG-M; conditions: endometrium, treatment time 72 hr
Protocol: as §1

AN3-CA = assay: Cell Proliferation Assay ±NA, AN3-CA; conditions: Homo sapiens, endometrium, treatment time 72 hr
Protocol: as §1

COLO-684 = assay: Cell Proliferation Assay ±NA, COLO-684; conditions: Homo sapiens, COLO-684, endometrium, treatment time 72 hr
Protocol: as §1

SN12C = assay: Cell Proliferation Assay ±NA, SN12C; conditions: Homo sapiens, kidney, treatment time 72 hr
Protocol: as §1

ACHN = assay: Cell Proliferation Assay ±NA, ACHN; conditions: Homo sapiens, kidney, treatment time 72 hr
Protocol: as §1

A498 = assay: Cell Proliferation Assay ±NA, A498; conditions: Homo sapiens, A498, kidney, treatment time 48 hr
Protocol: as §1

[1] = NA 0.0 μM, read-out: IC50 (μM) NA (0.0 μM)
[2] = NA 10 μM, read-out: IC50 (μM) NA (10 μM)

IC50 (NCI-H295; [1]): 0.1 µM
IC50 (NCI-H295; [2]): 0.06 µM
IC50 (COLO-684; [1]): 0.03 µM
IC50 (COLO-684; [2]): > 2 µM
IC50 (ACHN; [1]): 0.11 µM
IC50 (ACHN; [2]): > 2 µM
SMILES: CC(C)(O)CS(=O)(=O)Nc1ccc2c(c1)CCN(C(=O)COc1cccnc1)C2 [Example 1, 2-Hydroxy-2-methyl-N-[2-[2-(3-pyridyloxy)acetyl]-3,4-dihydro-1H-isoquinolin-6-yl]propane-1-sulfonamide]
IC50 (TGW; [1]): 0.01 µM
IC50 (TGW; [2]): 0.01 µM
IC50 (HEC-1-A; [1]): > 2 µM
IC50 (HEC-1-A; [2]): > 2 µM
IC50 (SNG-M; [1]): 0.02 µM
IC50 (SNG-M; [2]): 0.02 µM
IC50 (AN3-CA; [1]): 0.02 µM
IC50 (AN3-CA; [2]): 0.02 µM
IC50 (SN12C; [1]): 0.06 µM
IC50 (SN12C; [2]): 0.05 µM
IC50 (A498; [1]): 1.84 µM
IC50 (A498; [2]): > 2 µM
